Laboratory results published in patent US20250228827A1, “METHODS OF TREATING ERYTHROPOIETIC PROTOPORPHYRIA, X-LINKED PROTOPORPHYRIA, OR CONGENITAL ERYTHROPOIETIC PORPHYRIA WITH GLYCINE TRANSPORT INHIBITORS” (Disc Medicine, Inc., priority 2021, published 2025).

Tests used:
K562 clone 10-9 cells = test: PPIX accumulation in K562-EPP cellular model (Clone 10-9), flow cytometry; assay type: cell-based; conditions: for effect on PPIX accumulation by flow cytometry: 96 hours; for IC50: Homo sapiens, 96 hours at 37° C., flow cytometry, read-out: IC50 of inhibition of PPIX accumulation
Procedure: CRISPR-Cas9 technology was utilized to generate genetic changes in the Ferrochelatase gene (FECH). Guide RNA sgRNA-1 was designed to target Exon 3 of FECH genetic locus and generate a knockout allele at the FECH genomic locus by introduction of indels that lead to frameshift of the coding sequence and premature stop codon. The K562 cells were cultured in IMDM medium supplemented with 10% fetal bovine serum (FBS), 1% penicillin/streptomycin (PS). CRISPR Cas9 RNP complex with guide RNA (gRNA) was electroporated in K562 cells. The transfection was performed using 4D Nucleofector, SF kit, FF-120 program. The transfected cells were plated at densities of 0.5 cells per well in 96-well plates in complete medium. Cells were allowed to grow until colonies were visible in the well. The K562-EPP subclones were individually expanded and screened for the FECH knockout genotype by PCR of genomic DNA and for the expression of the FECH gene by RT-PCR. K562-Clone 10 is determined to be heterozygous for the FECH knockout allele and has reduced expression level of FECH mRNA than the parental K562 cell line.
In order to introduce the IVS3-T48C mutation into the wild-type allele of the FECH gene in K562-Clone10, CRISPR Cas9 RNP complex with guide RNA sgRNA-2 and single stranded DNA donor were electroporated into the K562-clonel0 that is already heterozygous for the FECH knockout allele generated from the CRISPR-Cas9 gene editing event described in the previous paragraph. sgRNA-2 was designed to target Intron 3, close to the target site IVS3-T48. Similarly, single-cell clones were isolated from this round of gene editing by limited dilution. TA cloning and Sanger sequencing were used to confirm single-cell clones and genotypes. This procedure generated K562 Clone10-IVS-Clone9 (Clone 10-9), which carries the FECH knockout allele in trans with the IVS3-T48C mutation in the other FECH allele.
The effect of GlyT1 inhibitors on reducing PPIX accumulation was evaluated in the K562-EPP cellular model, Clone 10-9. 900 μL of K562 clone 10-9 cells at 2×10^5 cells/mL in IMDM media with 10% FBS and 1% PS were plated into a 24-well plate. After 24-hour incubation, 100 μL of compound in DMSO/media was added in different concentration. The final concentration of DMSO was 0.1%. The compound was incubated for 96 hours at 37° C. Cell viability and cell count were measured by Vi-CELL XR Complete System. Finally, the effect of the compound on PPIX level was determined by flow cytometry.

[1] = system: FECH knockdown CD34+ cells; test: PPIX accumulation in FECH knockdown CD34+ cells (CD34+-EPP cells), LC-MS/MS; assay type: cell-based, human; conditions: for effect on PPIX accumulation / IC50: FECH knockdown CD34+ cells; for IC50: Homo sapiens, treated 9 days (day 8 to day 16), LC-MS/MS, read-out: IC50 on PPIX levels
Source text: To investigate the effects of GlyT1 inhibitors in human hematopoietic stem cells with an EPP phenotype, lentiviral vectors expressing shRNA of FECH were constructed (Table 2) and transduced at 25 MOI into human cord blood-CD34+ cells purchased from Stemexpress.
Specifically, the purchased CD34+ cells were defrosted and expanded for eight days in serum-free Hematopoietic Progenitor Expansion Medium XF (C-28021) supplemented with Cytokine Mix E (human TPO, SCF, FLT-3 ligand and IL-3, #C-39891). During the expansion phase, CD34 expression was monitored, cells were frozen in a serum-free DMSO-based freezing medium (CryoStor® CS2).
For FECH knock-down experiments, cells expanded from a single vial were used to avoid donor heterogeneity. Freshly defrosted cells were expanded for three days (day 0-day 3) and infected with lentivirus expressing shControl or shFECH at an MOI of 25 in the presence of polybrene. After transduction, shRNA expressing cells were selected in the presence of puromycin (1 ug/ml) for four days (day 4-day 7). FECH expression levels were determined in the shFECH transfected CD34+ cells at Day 8. FECH mRNA level was reduced by ˜80% (0.196±0.307) in the shFECH transfected CD34+ cells (FIG. 5A). FECH protein level was reduced by ˜62% in the shFECH transfected CD34+ cells (FIG. 5B and FIG. 5C).
In order to evaluate the effect of GlyT1 inhibitor on PPIX accumulation in CD34^+-EPP cells, the cells were treated with serial dilutions of the compounds or DMSO control in the erythroid differentiation medium for 9 days (day 8 to day 16). The differentiated erythroid cells were harvested at day 16 and assayed for the intracellular PPIX levels by LC-MS/MS.

IC50 (K562 clone 10-9 cells) [nM]	IC50 [1] [nM]	Compound	effect on PPIX accumulation by flow cytometry (K562 clone 10-9 cells)	PPIX pmol/million cells ([1]; 0.46 nM, sample 1) [pmol/million cells]	PPIX pmol/million cells ([1]; 0.46 nM, sample 2) [pmol/million cells]	PPIX pmol/million cells ([1]; 1.37 nM, sample 1) [pmol/million cells]	PPIX pmol/million cells ([1]; 1.37 nM, sample 2) [pmol/million cells]	PPIX pmol/million cells ([1]; 4.12 nM, sample 1) [pmol/million cells]	PPIX pmol/million cells ([1]; 4.12 nM, sample 2) [pmol/million cells]	PPIX pmol/million cells ([1]; 12.35 nM, sample 1) [pmol/million cells]	PPIX pmol/million cells ([1]; 12.35 nM, sample 2) [pmol/million cells]	PPIX pmol/million cells ([1]; 37.04 nM, sample 1) [pmol/million cells]	PPIX pmol/million cells ([1]; 37.04 nM, sample 2) [pmol/million cells]	PPIX pmol/million cells ([1]; 111.11 nM, sample 1) [pmol/million cells]	PPIX pmol/million cells ([1]; 111.11 nM, sample 2) [pmol/million cells]	PPIX pmol/million cells ([1]; 333.33 nM, sample 1) [pmol/million cells]	PPIX pmol/million cells ([1]; 333.33 nM, sample 2) [pmol/million cells]	PPIX pmol/million cells ([1]; 1000.00 nM, sample 1) [pmol/million cells]	PPIX pmol/million cells ([1]; 1000.00 nM, sample 2) [pmol/million cells]	effect on PPIX accumulation [1]
43.5	97.1	C[C@@H](Oc1ccc(S(C)(=O)=O)cc1C(=O)N1C[C@@H]2C[C@]2(c2cc(C(F)(F)F)on2)C1)C(F)(F)F [Compound A]	dose-dependent inhibition of PPIX accumulation	19.2	18.2	11.8	16.7	18.5	13.3	30.1	20.3	18.5	19.4	7	7.25	5.97	4.69	3.94	6.95	decreased
76.8	33.5	C[C@H](Oc1ccc(S(C)(=O)=O)cc1C(=O)N1Cc2cc(C(F)(F)F)cnc2C1)C(F)(F)F [Compound X]	dose-dependent inhibition of PPIX accumulation	25	27.1	27.3	46.5	34.4	24.7	34.6	34.6	14.7	17.5	13.6	13.5	14.1	15.2	11	12.8	decreased PPIX accumulation
